# Data as given in patent US8962673B2, “Use of melatonin for treating and/or preventing mucositis” (Universidad de Granada, priority 2011, dated 2015).
# Entries after “also recorded” stand apart in the source; their conditions may differ.
# Experiments:
# [1] = system: glutathione reductase (GRd); assay: Activity and expression of glutathione reductase in rat tongue mitochondria; format: in vivo; conditions: irradiated rats; i.p. 45 mg a day for 21 days
# Experimental: (§1) For topical administration in the oral cavity, the composition used was a hydrogel (gel) that comprised 1%, 3% or 5% melatonin (1, 3 or 5 grams of melatonin in 100 ml of the final volume of the composition, respectively) and in which 20% polyethylene and polypropylene copolymers were used as a gelling substance. Pluronic® F127 (poloxamer) was used as the polyethylene and polypropylene copolymers. 0.3% sodium benzoate was used as a preservative. 0.5% sweet orange essence was used. All the components used were acquired from FAGRON IBERICA, S.A.U., reference numbers: melatonin, 33457-27; Pluronic® F127, 33353-SP; sodium benzoate, 31360-12; orange essence, 30620-08. The chemical structure of melatonin is shown below: […]
# (§2) […]
# [2] = in vivo; cited from earlier work
# [3] = system: mitochondrial respiratory chain complexes CI, CIII, CIV and CV; assay: Expression of mitochondrial respiratory chain complexes in rat tongue by Western blot; format: in vivo; conditions: irradiated rats; i.p. 45 mg a day for 21 days
# Excerpt: (§3) The animals used in experiments were rats weighing 280 g, and they were subjected to ionizing radiations under controlled conditions in the Experimental Radiology Unit at the Biomedical Research Center in the University of Granada. The animals were subjected to full exposure of 50 grays (Gy). The irradiation dose used each day was 10 Gy administered at 100.75 cGy/min, 210 kilovolts (kV) and 12 milliamperes (mA), and placing the animal 40 cm away from the radiation source.
# (§4) The different formulations were applied to the animals as follows. A topical application was applied in the oral cavity before irradiation, another one after, and successive applications were applied every 8 hours for 21 days. […]
# as §2
# [4] = Melatonin levels in rat tongue mitochondria; format: in vivo; conditions: irradiated rats; parenteral (i.p.) 45 mg a day
# Excerpt: as §3, §4, §2
# [5] = system: mucositis caused by radiotherapy; assay: Macroscopic appearance of rat tongue / mucositis after irradiation; format: in vivo; conditions: irradiated rats
# Experimental: For topical administration in the oral cavity, the composition used was a hydrogel (gel) that comprised 1%, 3% or 5% melatonin (1, 3 or 5 grams of melatonin in 100 ml of the final volume of the composition, respectively) and in which 20% polyethylene and polypropylene copolymers were used as a gelling substance. Pluronic® F127 (poloxamer) was used as the polyethylene and polypropylene copolymers. 0.3% sodium benzoate was used as a preservative. 0.5% sweet orange essence was used. All the components used were acquired from FAGRON IBERICA, S.A.U., reference numbers: melatonin, 33457-27; Pluronic® F127, 33353-SP; sodium benzoate, 31360-12; orange essence, 30620-08. The chemical structure of melatonin is shown below:
# as §3
# The different formulations were applied to the animals as follows. A topical application was applied in the oral cavity before irradiation, another one after, and successive applications were applied every 8 hours for 21 days. […] The formulations used in the animals used in experiments were as follows: Pluronic F-127 gel with 1%, 3% or 5% melatonin (1, 3 or 5 grams of melatonin/100 ml gel, respectively), applied three times a day topically in the oral cavity at a volume of 500 μl/each time, giving a total of 1.5 ml/day. Topical application in the oral cavity means that the animals ingest the gel applied in the buccal cavity.
# The experiments were also conducted by administering to the animals the same melatonin concentration as that used with the 3% w/v hydrogel, but by intraperitoneal route, to see if plasma melatonin could reduce mucositis or if it is necessary to apply said molecule by topical route. For the parenteral route, an isotonic solution that comprised 70% v/v (volume/volume) of isotonic saline solution and 30% v/v of propylene glycol, measured in relation to the total volume of the solution, was used. A daily dose of 45 mg of melatonin was injected for 21 days. The animals were sacrificed 21 days after starting irradiation, like the animals treated with melatonin gel applied by topical route in the oral cavity.
# [6] = system: fibrosis and angiogenesis between the muscle fibers of the tongue; assay: Histology of rat tongue (hematoxylin-eosin, Masson Goldner's trichrome); format: in vivo; conditions: irradiated rats treated with melatonin (both treatments: 3% gel topical and parenteral) versus irradiated animals
# Excerpt: as §3, §4, §2
# mitochondria = assay: Electron microscopy of rat tongue mitochondria; format: in vivo; conditions: irradiated rats; parenteral route
# Excerpt: as §3, §4, §2
# [7] = system: glutathione peroxidase (GPx); assay: Activity and expression of glutathione peroxidase in rat tongue mitochondria; format: in vivo; conditions: irradiated rats
# Experimental: as §1, §2
# glutathione = assay: Glutathione levels (GSH, GSSG, GSSG/GSH) in tongue mitochondria of irradiated rats; format: in vivo, rat; conditions: i.p. 45 mg a day for 21 days, compared with 3% gel topical
# Experimental: as §1, §2
compound,measurement,setting,value
"COc1ccc2[nH]cc(CCNC(C)=O)c2c1 [melatonin, N-acetyl-5-methoxytryptamine]",activity and expression of GRd,[1],unable to restore the enzyme
same,half-life,[2],30 min
same,expression of complex V or ATP synthase,[3],completely unable to restore the expression of complex V
same,melatonin levels in the tongue,[4],not restored
same,"minimum effective dose for treating mucositis, daily dose","[5]; 3% gel applied three times a day, 500 μl in each application",45 mg
same,macroscopic tongue lesions (morphological appearance of the tongue),"[5]; 3% w/v gel, topical application in the oral cavity",completely normalizes the morphological appearance of the tongue
same,"minimum effective dose for treating mucositis, melatonin concentration in the gel","[5]; gel applied three times a day, 500 μl in each application",3%
same,mucositis caused by radiotherapy (macroscopic tongue lesions),"[5]; gel topical in the oral cavity, three times a day, 21 days",complete prevention of mucositis
same,macroscopic tongue lesions / mucositis,[5]; parenteral (i.p.) 45 mg a day for 21 days,unable to restore tongue lesions after irradiation; also recorded: no benefit whatsoever
same,fibrosis and angiogenesis between the muscle fibers of the tongue,[6],decrease in fibrosis and in angiogenesis
same,mitochondrial damage by electron microscopy (broken mitochondria),mitochondria,broken mitochondria are observed
same,activity and expression of GPx,"[7]; 3% w/v gel topical in the oral cavity, 45 mg a day",partially counteract the effect of irradiation
same,activity and expression of GPx,[7]; i.p. 45 mg a day for 21 days,partially counteract the effect of irradiation
same,GSSG/GSH ratio in tongue mitochondria,glutathione,higher GSSG/GSH ratio
same,restoring GSH and reducing GSSG in tongue mitochondria,glutathione,lower efficacy
